According to article PMC3747596 (PLoS ONE, 2013):
pKi: −log10 of the molar value. Like-named read-outs stand apart in the source and are kept apart here.

Legend:
H3 = H3 (Cavia porcellus, UniProt Q9JI35); assay: Radioligand displacement, H3; format: binding, Guinea Pig
β1 = β1 (Homo sapiens, UniProt P08588); assay: Radioligand displacement, β1; format: binding
M2 = M2 (Homo sapiens, UniProt P08172); assay: biochemical; format: binding
mice = conditions: mice, cited from earlier work
[1] = Caco-2 cell monolayer permeation; conditions: human, Caco-2, pH 7.4
β3 = β3 (Homo sapiens, UniProt P13945); assay: Radioligand displacement, β3; format: binding
Sequence of β3 (P13945 whole entry): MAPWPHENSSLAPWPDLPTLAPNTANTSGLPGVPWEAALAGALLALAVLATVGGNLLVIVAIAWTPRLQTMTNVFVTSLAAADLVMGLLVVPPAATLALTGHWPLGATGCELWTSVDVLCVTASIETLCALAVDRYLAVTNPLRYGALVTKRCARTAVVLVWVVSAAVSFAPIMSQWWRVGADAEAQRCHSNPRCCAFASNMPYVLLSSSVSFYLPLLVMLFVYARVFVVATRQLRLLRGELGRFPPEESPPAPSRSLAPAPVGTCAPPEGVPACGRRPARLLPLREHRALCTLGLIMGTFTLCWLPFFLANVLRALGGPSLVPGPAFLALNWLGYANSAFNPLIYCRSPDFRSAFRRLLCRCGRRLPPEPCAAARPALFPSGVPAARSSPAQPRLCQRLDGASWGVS

5-HT1d = 5-HT1d (Homo sapiens, UniProt P28221); assay: Radioligand displacement, 5-HT1d
Sequence of 5-HT1d (P28221 whole entry): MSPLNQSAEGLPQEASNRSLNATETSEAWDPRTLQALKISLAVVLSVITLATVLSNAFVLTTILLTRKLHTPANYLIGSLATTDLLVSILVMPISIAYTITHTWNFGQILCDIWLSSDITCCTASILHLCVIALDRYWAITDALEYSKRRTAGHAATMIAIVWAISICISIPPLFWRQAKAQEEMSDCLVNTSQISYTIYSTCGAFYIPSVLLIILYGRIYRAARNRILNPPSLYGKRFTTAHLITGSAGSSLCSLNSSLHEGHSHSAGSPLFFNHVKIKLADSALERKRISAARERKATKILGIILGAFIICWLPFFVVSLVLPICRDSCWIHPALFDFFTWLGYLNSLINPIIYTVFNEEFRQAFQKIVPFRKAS

[2] = biological target: NMDA receptors, phencyclidine (cation channel) site; assay: Radioligand displacement, NMDA; format: binding, Rat; conditions: for pKi: [3H] radioligand MK801, Rat, Brain
5-HT2b = 5-HT2b (Homo sapiens, UniProt P41595); assay: Radioligand displacement, 5-HT2b; format: binding
Sequence of 5-HT2b (P41595 whole entry): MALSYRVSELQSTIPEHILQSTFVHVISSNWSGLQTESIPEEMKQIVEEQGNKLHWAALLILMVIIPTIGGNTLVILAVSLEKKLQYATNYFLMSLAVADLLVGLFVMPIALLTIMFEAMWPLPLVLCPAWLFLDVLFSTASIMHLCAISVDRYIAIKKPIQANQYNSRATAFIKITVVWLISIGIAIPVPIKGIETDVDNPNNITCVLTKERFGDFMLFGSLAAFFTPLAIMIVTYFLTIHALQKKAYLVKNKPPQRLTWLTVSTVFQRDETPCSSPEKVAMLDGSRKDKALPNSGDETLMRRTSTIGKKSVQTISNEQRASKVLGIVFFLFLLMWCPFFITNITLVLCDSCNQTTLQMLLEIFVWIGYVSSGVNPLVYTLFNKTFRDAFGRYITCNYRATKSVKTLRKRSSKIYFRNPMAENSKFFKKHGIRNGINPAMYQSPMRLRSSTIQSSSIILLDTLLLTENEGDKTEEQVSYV

5-HT6 = 5-HT6 (Homo sapiens, UniProt P50406); assay: Radioligand displacement, 5-HT6; format: binding
Sequence of 5-HT6 (P50406 whole entry): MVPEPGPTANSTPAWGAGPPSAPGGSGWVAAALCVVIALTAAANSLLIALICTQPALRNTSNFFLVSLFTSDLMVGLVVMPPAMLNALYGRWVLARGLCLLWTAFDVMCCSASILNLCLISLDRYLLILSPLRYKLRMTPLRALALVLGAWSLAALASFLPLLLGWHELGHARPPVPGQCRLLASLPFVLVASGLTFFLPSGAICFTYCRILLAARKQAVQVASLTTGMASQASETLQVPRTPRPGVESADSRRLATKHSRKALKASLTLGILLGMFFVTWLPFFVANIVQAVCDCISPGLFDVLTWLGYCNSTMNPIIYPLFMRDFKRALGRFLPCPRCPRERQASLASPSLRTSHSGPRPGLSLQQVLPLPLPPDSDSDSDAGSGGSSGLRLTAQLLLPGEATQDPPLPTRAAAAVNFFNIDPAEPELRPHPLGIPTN

5-HT2c = biological target: T1, 5-HT2c (Homo sapiens, UniProt P28335); assay: Radioligand displacement, 5-HT2c; format: binding
T1 sequence (P28335 33-458): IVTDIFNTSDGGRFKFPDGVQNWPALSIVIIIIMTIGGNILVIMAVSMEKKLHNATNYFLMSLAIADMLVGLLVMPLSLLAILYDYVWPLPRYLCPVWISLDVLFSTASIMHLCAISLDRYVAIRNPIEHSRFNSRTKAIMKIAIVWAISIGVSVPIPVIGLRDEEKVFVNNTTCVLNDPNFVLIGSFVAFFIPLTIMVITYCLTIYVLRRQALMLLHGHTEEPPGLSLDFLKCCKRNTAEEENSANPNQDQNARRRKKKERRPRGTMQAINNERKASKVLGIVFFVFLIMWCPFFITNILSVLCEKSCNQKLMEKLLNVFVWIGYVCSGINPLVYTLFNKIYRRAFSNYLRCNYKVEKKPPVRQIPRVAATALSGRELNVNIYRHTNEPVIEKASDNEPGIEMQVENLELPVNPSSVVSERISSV

M5 = M5 (Homo sapiens, UniProt P08912); assay: Radioligand displacement, M5; format: binding
Sequence of M5 (P08912 whole entry): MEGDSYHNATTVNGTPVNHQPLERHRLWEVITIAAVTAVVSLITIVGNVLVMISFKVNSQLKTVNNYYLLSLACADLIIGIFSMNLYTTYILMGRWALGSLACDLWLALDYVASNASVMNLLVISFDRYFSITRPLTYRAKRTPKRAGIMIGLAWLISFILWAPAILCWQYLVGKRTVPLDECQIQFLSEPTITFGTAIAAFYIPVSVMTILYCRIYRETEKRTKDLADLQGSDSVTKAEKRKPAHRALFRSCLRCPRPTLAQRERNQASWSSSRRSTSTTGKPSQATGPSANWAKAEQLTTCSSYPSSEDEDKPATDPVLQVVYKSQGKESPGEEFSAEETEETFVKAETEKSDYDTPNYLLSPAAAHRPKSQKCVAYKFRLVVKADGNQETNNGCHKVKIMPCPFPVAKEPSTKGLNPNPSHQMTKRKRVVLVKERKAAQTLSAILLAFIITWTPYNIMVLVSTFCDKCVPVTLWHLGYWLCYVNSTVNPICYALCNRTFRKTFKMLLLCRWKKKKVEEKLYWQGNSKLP

5-HT3 = biological target: T2, 5-HT3 (Homo sapiens, UniProt P46098); assay: Radioligand displacement, 5-HT3; format: binding
T2 sequence (P46098 24-478): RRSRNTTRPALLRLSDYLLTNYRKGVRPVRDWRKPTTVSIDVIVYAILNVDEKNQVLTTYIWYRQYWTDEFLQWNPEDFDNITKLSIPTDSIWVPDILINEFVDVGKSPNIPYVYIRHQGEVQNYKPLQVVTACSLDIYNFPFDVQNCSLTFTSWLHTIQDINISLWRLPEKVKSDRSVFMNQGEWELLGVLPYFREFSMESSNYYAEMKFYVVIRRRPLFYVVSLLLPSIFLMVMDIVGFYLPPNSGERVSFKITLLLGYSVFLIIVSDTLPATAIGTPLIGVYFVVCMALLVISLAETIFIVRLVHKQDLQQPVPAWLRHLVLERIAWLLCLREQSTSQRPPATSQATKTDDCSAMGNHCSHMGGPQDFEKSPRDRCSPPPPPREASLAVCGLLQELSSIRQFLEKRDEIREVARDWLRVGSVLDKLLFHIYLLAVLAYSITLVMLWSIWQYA

H4 = H4 (Homo sapiens, UniProt Q9H3N8); assay: Radioligand displacement, H4; format: binding
Sequence of H4 (Q9H3N8 whole entry): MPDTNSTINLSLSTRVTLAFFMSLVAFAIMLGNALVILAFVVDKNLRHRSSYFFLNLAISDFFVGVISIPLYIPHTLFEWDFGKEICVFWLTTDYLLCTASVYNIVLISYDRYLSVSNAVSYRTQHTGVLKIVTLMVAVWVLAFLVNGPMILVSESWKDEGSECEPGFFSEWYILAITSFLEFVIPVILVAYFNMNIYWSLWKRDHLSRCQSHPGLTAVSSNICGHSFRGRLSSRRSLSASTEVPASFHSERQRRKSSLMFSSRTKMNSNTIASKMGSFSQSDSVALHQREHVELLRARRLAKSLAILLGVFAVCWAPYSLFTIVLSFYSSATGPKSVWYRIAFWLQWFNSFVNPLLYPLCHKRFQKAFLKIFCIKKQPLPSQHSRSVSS

5-HT1e = 5-HT1e (Homo sapiens, UniProt P28566); assay: Radioligand displacement, 5-HT1e; format: binding
Sequence of 5-HT1e (P28566 whole entry): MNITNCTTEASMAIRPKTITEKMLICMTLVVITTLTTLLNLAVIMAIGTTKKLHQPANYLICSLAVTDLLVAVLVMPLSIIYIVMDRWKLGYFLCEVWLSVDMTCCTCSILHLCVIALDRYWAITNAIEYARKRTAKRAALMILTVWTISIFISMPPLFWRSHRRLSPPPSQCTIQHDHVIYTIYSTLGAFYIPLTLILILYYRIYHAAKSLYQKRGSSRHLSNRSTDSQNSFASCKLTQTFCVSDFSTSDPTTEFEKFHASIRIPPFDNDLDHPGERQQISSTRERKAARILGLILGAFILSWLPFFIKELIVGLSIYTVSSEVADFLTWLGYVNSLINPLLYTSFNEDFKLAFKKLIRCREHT

SERT = SERT (Homo sapiens, UniProt P31645); assay: Radioligand displacement, SERT; format: binding
[3] = cited from earlier work
α1B = biological target: T3, α1B (Homo sapiens, UniProt P35368); assay: Radioligand displacement, α1B; format: binding
T3 sequence (P35368 1-520): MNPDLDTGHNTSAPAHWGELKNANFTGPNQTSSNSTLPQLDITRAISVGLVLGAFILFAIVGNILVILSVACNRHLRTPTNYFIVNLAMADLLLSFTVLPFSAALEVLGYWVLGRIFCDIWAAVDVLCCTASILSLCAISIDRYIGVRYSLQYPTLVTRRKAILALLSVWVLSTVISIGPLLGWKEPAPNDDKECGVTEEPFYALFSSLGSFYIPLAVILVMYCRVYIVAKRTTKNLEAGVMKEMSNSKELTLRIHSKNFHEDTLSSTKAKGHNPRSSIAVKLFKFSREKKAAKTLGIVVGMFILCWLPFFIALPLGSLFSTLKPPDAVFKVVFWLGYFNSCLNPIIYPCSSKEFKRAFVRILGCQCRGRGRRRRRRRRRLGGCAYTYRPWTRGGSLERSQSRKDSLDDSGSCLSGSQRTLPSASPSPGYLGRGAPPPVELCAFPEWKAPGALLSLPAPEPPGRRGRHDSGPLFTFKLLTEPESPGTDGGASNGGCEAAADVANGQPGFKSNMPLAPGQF

H2 = H2 (Homo sapiens, UniProt P25021); assay: Radioligand displacement, H2
Sequence of H2 (P25021 whole entry): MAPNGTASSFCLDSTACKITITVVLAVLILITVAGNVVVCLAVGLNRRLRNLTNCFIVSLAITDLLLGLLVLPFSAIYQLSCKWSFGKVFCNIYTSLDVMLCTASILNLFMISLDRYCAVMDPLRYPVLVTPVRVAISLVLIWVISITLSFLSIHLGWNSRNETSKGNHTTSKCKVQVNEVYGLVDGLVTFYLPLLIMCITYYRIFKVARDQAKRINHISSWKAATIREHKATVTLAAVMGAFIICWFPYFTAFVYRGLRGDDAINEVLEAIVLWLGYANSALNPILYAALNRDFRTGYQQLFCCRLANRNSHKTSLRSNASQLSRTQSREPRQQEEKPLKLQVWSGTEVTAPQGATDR

[4] = Ki, [3H] radioligand QNB, Human, Cloned
[5] = Ki, [3H] radioligand GR125743, Human, Cloned
[6] = Ki, [3H] radioligand Prazosin, Human, Cloned
[7] = [3H] radioligand QNB, Human, Cloned, read-out: Ki
[8] = [3H] radioligand LSD, Human, Cloned, read-out: Ki

Sequence of M2 (P08172 whole entry): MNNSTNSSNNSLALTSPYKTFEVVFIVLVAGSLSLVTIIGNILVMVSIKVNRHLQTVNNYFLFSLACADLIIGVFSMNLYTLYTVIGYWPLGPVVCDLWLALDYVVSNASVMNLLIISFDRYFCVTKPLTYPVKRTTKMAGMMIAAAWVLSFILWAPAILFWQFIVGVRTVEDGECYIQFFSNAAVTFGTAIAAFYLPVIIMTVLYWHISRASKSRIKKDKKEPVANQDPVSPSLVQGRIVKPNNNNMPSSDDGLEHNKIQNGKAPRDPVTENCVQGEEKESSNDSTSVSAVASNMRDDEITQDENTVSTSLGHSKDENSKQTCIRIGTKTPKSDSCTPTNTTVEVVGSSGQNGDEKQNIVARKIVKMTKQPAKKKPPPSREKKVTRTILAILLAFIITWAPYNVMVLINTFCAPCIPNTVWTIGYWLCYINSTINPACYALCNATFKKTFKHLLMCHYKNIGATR
Sequence of H3 (Q9JI35 whole entry): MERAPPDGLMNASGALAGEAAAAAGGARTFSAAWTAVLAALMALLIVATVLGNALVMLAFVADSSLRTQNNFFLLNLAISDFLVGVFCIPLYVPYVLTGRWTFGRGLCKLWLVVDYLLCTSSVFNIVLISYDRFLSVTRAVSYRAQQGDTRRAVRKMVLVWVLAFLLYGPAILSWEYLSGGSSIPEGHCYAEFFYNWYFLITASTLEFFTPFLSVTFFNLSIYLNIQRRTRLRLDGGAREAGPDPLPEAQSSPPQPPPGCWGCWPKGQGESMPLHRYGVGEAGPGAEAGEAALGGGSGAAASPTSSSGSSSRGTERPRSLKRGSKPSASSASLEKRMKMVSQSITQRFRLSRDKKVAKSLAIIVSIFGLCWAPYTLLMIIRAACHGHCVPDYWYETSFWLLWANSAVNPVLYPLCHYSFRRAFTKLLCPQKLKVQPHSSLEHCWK
Sequence of β1 (P08588 whole entry): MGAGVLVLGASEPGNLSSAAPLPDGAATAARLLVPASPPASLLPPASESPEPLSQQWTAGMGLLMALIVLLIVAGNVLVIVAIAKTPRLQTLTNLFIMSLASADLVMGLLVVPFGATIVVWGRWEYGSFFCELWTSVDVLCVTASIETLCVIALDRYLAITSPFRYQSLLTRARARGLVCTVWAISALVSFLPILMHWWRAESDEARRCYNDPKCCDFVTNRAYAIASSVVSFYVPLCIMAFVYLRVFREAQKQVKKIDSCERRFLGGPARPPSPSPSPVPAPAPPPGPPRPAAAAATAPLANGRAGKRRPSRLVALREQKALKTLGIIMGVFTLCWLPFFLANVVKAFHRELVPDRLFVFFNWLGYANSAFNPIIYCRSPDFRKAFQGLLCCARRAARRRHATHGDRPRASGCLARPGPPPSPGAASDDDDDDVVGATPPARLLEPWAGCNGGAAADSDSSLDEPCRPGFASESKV

N=C(N)Nc1ccc2[nH]c3c(c2c1)C[C@@]1(O)[C@H]2Cc4ccc(O)c5c4[C@@]1(CCN2CC1CC1)[C@H]3O5 [GNTI, 5′-guanidinonaltrindole]
pKi (H3): ≤ 5.00
pKi (β1): ≤ 5.00
pKi (M2; [4]): 5.27
pKi (M2; Ki, binding curve File S1, M2 Receptor, [3H]QNB (0.1 nM), Muscarinic Binding Buffer): 5.27
pKi (M2; M2, radioligand displacement (Table 1), read-out: K i): 5.27
time to ataxia, convulsions and death (mice; 30 mg/kg i.p.): ≤ 18 min
toxic signs (mice; 30 mg/kg i.p.): ataxia, convulsions and death
Papp A→B at 120 min [1]: 88 ×10⁻⁶ cm/s
Papp B→A at 120 min [1]: 270 ×10⁻⁶ cm/s
efflux ratio at 120 min [1]: 3.1
pKi (β3): ≤ 5.00
pKi (5-HT1d; [5]): ≤ 5.00
pKi [2]: ≤ 5.00
pKi (5-HT2b): ≤ 5.00
pKi (5-HT6): ≤ 5.00
pKi (5-HT2c): ≤ 5.00
pKi (M5): ≤ 5.00
pKi (5-HT3): ≤ 5.00
pKi (H4): ≤ 5.00
pKi (5-HT1e): ≤ 5.00
pKi (SERT): ≤ 5.00
estimate of the unbound brain concentration ([3]; after 39 mg/kg): 5 nM
peak unbound concentration in plasma ([3]; dose 10 mg/kg): 2 µM
peak unbound concentration in plasma ([3]; dose 39 mg/kg): 8 µM
decline of plasma concentration ([3]; within 4 hours): over 80%
decline of plasma concentration ([3]; within 24 hours): over 98%
pKi (α1B; [6]): 5.05
pKi (α1B; Ki, binding curve File S1 (GNTI page), Alpha1B Receptor, [125I]HEAT (0.05 nM)): 5.05
pKi (H2): ≤ 5.00

CC(C)[C@@H](CN1CC[C@@](C)(c2cccc(O)c2)[C@@H](C)C1)NC(=O)[C@H]1Cc2ccc(O)cc2CN1 [JDTic]
pKi (H3; [3H] radioligand α-methylhistamine, Guinea Pig, Cloned, read-out: Ki): ≤ 5.00
pKi (β1; [3H] radioligand CGP12177, Human, Heart, read-out: Ki): ≤ 5.00
pKi (M2; [7]): ≤ 5.00
pKi (M2; binding curve File S1, M2 Receptor, [3H]QNB (0.1 nM), Muscarinic Binding Buffer, read-out: Ki): < 5.00
toxic signs (mice; 100 mg/kg): no convulsions or deaths
Papp A→B at 120 min [1]: 60 ×10⁻⁶ cm/s
Papp B→A at 120 min [1]: 310 ×10⁻⁶ cm/s
pKi (β3; [3H] radioligand CGP12177, Human, Cloned, read-out: Ki): ≤ 5.00
pKi (5-HT1d): ≤ 5.00
pKi [2]: ≤ 5.00
pKi (5-HT2b; [8]): ≤ 5.00
pKi (5-HT6; [8]): ≤ 5.00
pKi (5-HT2c; [3H] radioligand Mesulergine, Human, Cloned, read-out: Ki): ≤ 5.00
pKi (M5; [7]): ≤ 5.00
pKi (5-HT3; [3H] radioligand LY278584, Human, Cloned, read-out: Ki): ≤ 5.00
pKi (H4; [3H] radioligand Histamine, Human, Cloned, read-out: Ki): ≤ 5.00
pKi (5-HT1e; [3H] radioligand 5HT, Human, Cloned, read-out: Ki): ≤ 5.00
pKi (SERT; [3H] radioligand Citalopram, Human, Cloned, read-out: Ki): ≤ 5.00
peak unbound concentration in plasma ([3]; dose 10 mg/kg): 0.1 µM
decline of plasma concentration ([3]; within 4 hours): over 80%
decline of plasma concentration ([3]; within 24 hours): over 98%
pKi (α1B; [3H] radioligand Prazosin, Human, Cloned, read-out: Ki): 5.32
pKi (α1B; binding curve File S1 (JDTic page), Alpha1B Receptor, [125I]HEAT (0.12 nM), read-out: Ki): 5.32
pKi (α1B; α1B, radioligand displacement (Table 1), read-out: K i): 5.32
pKi (H2; K i, H2, radioligand displacement (Table 1)): 5.74
pKi (H2; Ki, [3H] radioligand Tiotidine, Human, Cloned): 5.75
pKi (H2; Ki, binding curve File S1, H2 Receptor, [3H]Tiotidine (3 nM), Histamine Binding Buffer): 5.75

Oc1ccc2c3c1O[C@H]1c4[nH]c5c(c4C[C@@]4(O)[C@@H](C2)N(CC2CC2)CC[C@]314)C[C@@]1(O)[C@H]2Cc3ccc(O)c4c3[C@@]1(CCN2CC1CC1)[C@H]5O4 [nor-BNI, Nor-binaltorphimine]
pKi (H3): ≤ 5.00
pKi (β1): ≤ 5.00
pKi (M2; [4]): ≤ 5.00
toxic signs (mice; 100 mg/kg): no convulsions or deaths
Papp A→B at 120 min [1]: 51 ×10⁻⁶ cm/s
Papp B→A at 120 min [1]: 310 ×10⁻⁶ cm/s
pKi (β3): ≤ 5.00
pKi (5-HT1d; K i, 5-HT1d, radioligand displacement (Table 1)): 5.96
pKi (5-HT1d; [5]): 5.95
pKi [2]: ≤ 5.00
displacement of [3H]MK-801 from the phencyclidine (cation channel) site ([2]; at 10 µM): did not displace
pKi (5-HT2b): ≤ 5.00
pKi (5-HT6): ≤ 5.00
pKi (5-HT2c): ≤ 5.00
pKi (M5): ≤ 5.00
pKi (5-HT3): ≤ 5.00
pKi (H4): ≤ 5.00
pKi (5-HT1e): ≤ 5.00
pKi (SERT): ≤ 5.00
peak unbound concentration in plasma ([3]; dose 10 mg/kg): 3 µM
decline of plasma concentration ([3]; within 4 hours): over 80%
decline of plasma concentration ([3]; within 24 hours): over 98%
pKi (α1B; [6]): ≤ 5.00
pKi (H2): ≤ 5.00
